Measured values: patent publication US20180328927A1 (HUNAN SKYWORLD BIOTECHNOLOGIES CO., priority 2015, published 2018)
“Also recorded” adds a separate entry of the source. Like-named read-outs stand apart in the source and are kept apart here.

Assays:
[1] = tested on: anti-SAM monoclonal antibodies; assay: Cross-reaction of anti-SAM antibody with MAT substrates ATP and L-Met, direct competitive ELISA; type: binding; conditions: for Cross-reaction (%): relative to SAM standard at 50% inhibition
Description: (A) Antigen-coating method: A PLL or BSA-conjugated SAM antigen is pre-coated on a solid-phase ELISA micro-titer plate that is then blocked with BSA solution. The antigen to be detected (SAM sample), then HRP-conjugated anti-SAM antibody are added and incubated at the same time. The antigen to be tested and the coating antigen compete for the enzyme-labeled antibody. After incubation and washing, the enzyme-labeled antibody bound to the coating antigen is retained, and the enzyme-labeled antibody that binds to the antigen to be detected (free antigen) is washed away. Finally, adding TMB substrate to the reaction wells. The final coloration result is inversely proportional to the amount of the antigen to be detected, that is, the higher the OD450 value, the lower the SAM concentration in the sample to be measured. In the course of the experiment, a series of SAM solutions with a known concentration were used as standards in the same ELISA micro-titer plate for the standard curve of the assay. Based on the standard curve, an equation showing how OD450 readings and values of the known standard concentration are related can be obtained. Put the sample OD450 into the equation to get the corresponding concentration value of the sample.
The ELISA plates were coated with PLL SAM antigen. […] The HRP-anti-SAM antibody was diluted at 1:25000 with HRP antibody diluent. Added 30 μl standards and cross-reacting substances ATP and Met per well, and 70 μl diluted HRP-anti-SAM antibody per well and incubated at 37° C. for 1 h. Washed the plate, added 100 μl TMB at 37° C. for 15 min, added 50 μl stop solution and read OD450.
A/A0; reaction rate (A0 is the OD450 reading at 0 nM, A represents any OD450 reading of wells that have different amount of free small molecule antigen competing.)

MAT-III/I in L02 cells = assay: Intracellular MAT activity in L02 cells after GSNO pretreatment and Met; type: cell-based, human
MAT-II in HepG2 cells = molecular target: T1, MAT-II in HepG2 cells (Homo sapiens, UniProt P31153); assay: Intracellular MAT activity in HepG2 cells after GSNO pretreatment and Met; type: cell-based
T1 construct: endogenous in cells; host or cells: HepG2

[2] = molecular target: methionine adenosyltransferase (MAT) (Escherichia coli, UniProt P0A817)
[3] = cross-reacting substance 120 nM
[4] = cross-reacting substance 1200 nM
[5] = cross-reacting substance 3960 nM
[6] = cross-reacting substance 12000 nM

SMILES: Nc1ncnc2c1ncn2[C@@H]1O[C@H](COP(=O)(O)OP(=O)(O)OP(=O)(O)O)[C@@H](O)[C@H]1O [ATP, adenosine triphosphate]
- A/A0 (reaction rate) [1, 3]: 1.051
- A/A0 (reaction rate) [1, 4]: 1.001
- A/A0 (reaction rate) [1, 5]: 1.095
- A/A0 (reaction rate) [1, 6]: 1.086
- Cross-reaction (%) [1]: <1%

SMILES: N[C@@H](CCC(=O)N[C@@H](CSN=O)C(=O)NCC(=O)O)C(=O)O [GSNO, nitrosoglutathione]
- effect of GSNO nitrosylation on MAT-III/I (MAT-III/I in L02 cells; 1 mM GSNO pretreatment, Met stimulation): inhibition of MAT-III or MAT-I after nitrosation of GSNO was obvious; also recorded: inhibitory effect of GSNO nitrosylation on MAT-III/I was obvious
- effect of GSNO nitrosylation on MAT activity (MAT-III/I in L02 cells; in the presence of 2 mM Met): remained obvious
- effect of GSNO nitrosylation on MAT-II (MAT-II in HepG2 cells; 1 mM GSNO pretreatment): minor effect on MAT-II; also recorded: no inhibitory effect on MAT-II

SMILES: [Cl-].[K+] [KCl]
- A/A0 ([2]; KCl 50 mM, 20 mM MgSO4, 100 mM Tris, ATP 5 mM, Met 4 mM, MAT 1 mg/ml): 0.1983
- A/A0 ([2]; KCl 100 mM): 0.1938
- A/A0 ([2]; KCl 150 mM): 0.1911
- A/A0 ([2]; KCl 200 mM): 0.1973
- A/A0 ([2]; KCl 250 mM): 0.2079
- A/A0 ([2]; KCl 300 mM): 0.2106
- A/A0 ([2]; KCl 400 mM): 0.1995

SMILES: CSCC[C@H](N)C(=O)O [Met, methionine]
- SAM (nM) synthesized by MAT (MAT-III/I in L02 cells; 0.5 mM Met 24 h, normalized to 2×10^7 cells, 0 mM Met control 274.4578162): 377.7 nM
- effect on MAT-III/I activity (MAT-III/I in L02 cells; 500 μM Met, 24 hours): stimulated the activity of MAT-III or MAT-I; also recorded: stimulated MAT-III/I activity
- effect on MAT-III/I activity (MAT-III/I in L02 cells; 2 mM Met): No stimulatory effects; also recorded: stimulation was not significant
- SAM (nM) synthesized by MAT (MAT-III/I in L02 cells; 2 mM Met 24 h): 236.4 nM
- SAM (nM) synthesized by MAT (MAT-II in HepG2 cells; 0.5 mM Met 24 h, normalized to 2×10^7 cells, 0 mM Met control 247.4761): 222.3993 nM
- SAM (nM) synthesized by MAT (MAT-II in HepG2 cells; 2 mM Met 24 h): 174.3621 nM
- effect on MAT-II activity (MAT-II in HepG2 cells; Met 0.5 and 2 mM): the higher the Met concentration, the lower the activity of MAT-II; also recorded: inhibits MAT-II activity
- A/A0 (reaction rate) [1, 3]: 1.042
- A/A0 (reaction rate) [1, 4]: 1.046
- A/A0 (reaction rate) [1, 5]: 1.012
- A/A0 (reaction rate) [1, 6]: 1.095
- Cross-reaction (%) [1]: <1%

SMILES: O=S(=O)([O-])[O-].[Mg+2] [MgSO4]
- A/A0 ([2]; MgSO4 4 mM, 250 mM KCl, 100 mM Tris, ATP 5 mM, Met 4 mM, MAT 1 mg/ml): 0.2199
- A/A0 ([2]; MgSO4 10 mM): 0.2047
- A/A0 ([2]; MgSO4 30 mM): 0.1867
- A/A0 ([2]; MgSO4 50 mM): 0.1766
- A/A0 ([2]; MgSO4 70 mM): 0.1734
- A/A0 ([2]; MgSO4 100 mM): 0.1724
- decrease of A/A0 ([2]; MgSO4 from 4 mM to 100 mM): 0.475

SMILES: NC(CO)(CO)CO [Tris, tris (hydroxymethyl) aminomethane]
- A/A0 ([2]; Tris 20 mM, after optimal Mg2+ and K+ were determined): 0.4981
- A/A0 ([2]; Tris 50 mM): 0.2567
- A/A0 ([2]; Tris 100 mM): 0.2168
- A/A0 ([2]; Tris 200 mM): 0.2472
